Test results reported in patent US6914045B2, “Glycopeptide antibiotics” (Wyeth Holdings Corporation, priority 2001, dated 2005).
Converted amounts (≈) assume the structure as drawn.

Legend:
Experiment in all cases: in vitro antibacterial evaluation, MIC by broth dilution
Assay type in all cases: cell-based
Enterococcus sp. = conditions: broth dilution, 18 hours at 35° C.
Method in brief: (§1)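 MIC, the lowest antibiotic concentration preventing growth, was read across 64-0.06 μg/mL with 5×10^5 CFU/mL inoculum. Method followed NCCLS M7-A2 broth dilution using Mueller-Hinton II; Gram-positive strains covered recent methicillin-, penicillin- and/or vancomycin-resistant clinical isolates.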

Escherichia coli = conditions: 18 hours at 35° C.
Method in brief: as §1

Staphylococcus sp. = conditions: broth dilution, 18 hours at 35° C.
Method in brief: as §1

Streptococcus sp. = conditions: broth dilution, 18 hours at 35° C.
Method in brief: as §1

MIC Enterococcus avium (GC 4558) (Enterococcus sp.; Enterococcus avium (GC 4558)): 4 µg/mL (≈ 2.82 µM)
MIC Enterococcus faecalis (ATCC 29212) (Enterococcus sp.; Enterococcus faecalis (ATCC 29212)): 8 µg/mL (≈ 5.64 µM)
MIC Enterococcus faecalis (GC 2242) (Enterococcus sp.; Enterococcus faecalis (GC 2242)): 4 µg/mL (≈ 2.82 µM)
MIC Enterococcus faecalis (GC 2691) (Enterococcus sp.; Enterococcus faecalis (GC 2691)): 4 µg/mL (≈ 2.82 µM)
MIC Enterococcus faecalis (GC 3059) (Enterococcus sp.; Enterococcus faecalis (GC 3059)): 8 µg/mL (≈ 5.64 µM)
MIC Enterococcus faecalis (GC 4552) (Enterococcus sp.; Enterococcus faecalis (GC 4552)): 4 µg/mL (≈ 2.82 µM)
MIC Enterococcus faecalis (GC 4553) (Enterococcus sp.; Enterococcus faecalis (GC 4553)): 4 µg/mL (≈ 2.82 µM)
MIC Enterococcus faecalis (GC 4554) (Enterococcus sp.; Enterococcus faecalis (GC 4554)): 8 µg/mL (≈ 5.64 µM)
MIC Enterococcus faecalis (GC 6189) (Enterococcus sp.; Enterococcus faecalis (GC 6189)): 4 µg/mL (≈ 2.82 µM)
MIC Enterococcus faecium (GC 2243) (Enterococcus sp.; Enterococcus faecium (GC 2243)): 4 µg/mL (≈ 2.82 µM)
MIC Enterococcus faecium (GC 4556) (Enterococcus sp.; Enterococcus faecium (GC 4556)): 8 µg/mL (≈ 5.64 µM)
MIC Enterococcus faecium (GC 4557) (Enterococcus sp.; Enterococcus faecium (GC 4557)): 2 µg/mL (≈ 1.41 µM)
MIC Enterococcus faecalis (ATCC 29212) (Enterococcus sp.; strain ATCC 29212): 8 µg/mL (≈ 5.64 µM)
MIC Enterococcus faecalis (GC 2242) (Enterococcus sp.; strain GC 2242): 4 µg/mL (≈ 2.82 µM)
MIC Enterococcus faecium (GC 2243) (Enterococcus sp.; strain GC 2243): 4 µg/mL (≈ 2.82 µM)
MIC Enterococcus faecalis (GC 2691) (Enterococcus sp.; strain GC 2691): 4 µg/mL (≈ 2.82 µM)
MIC Enterococcus faecalis (GC 3059) (Enterococcus sp.; strain GC 3059): 8 µg/mL (≈ 5.64 µM)
MIC Enterococcus faecalis (GC 4552) (Enterococcus sp.; strain GC 4552): 4 µg/mL (≈ 2.82 µM)
MIC Enterococcus faecalis (GC 4553) (Enterococcus sp.; strain GC 4553): 4 µg/mL (≈ 2.82 µM)
MIC Enterococcus faecalis (GC 4554) (Enterococcus sp.; strain GC 4554): 8 µg/mL (≈ 5.64 µM)
MIC Enterococcus faecium (GC 4556) (Enterococcus sp.; strain GC 4556): 8 µg/mL (≈ 5.64 µM)
MIC Enterococcus faecium (GC 4557) (Enterococcus sp.; strain GC 4557): 2 µg/mL (≈ 1.41 µM)
MIC Enterococcus avium (GC 4558) (Enterococcus sp.; strain GC 4558): 4 µg/mL (≈ 2.82 µM)
MIC Enterococcus faecalis (GC 6189) (Enterococcus sp.; strain GC 6189): 4 µg/mL (≈ 2.82 µM)
MIC Escherichia coli (ATCC 25922) (Escherichia coli; strain ATCC 25922): 32 µg/mL (≈ 22.5 µM)
MIC Escherichia coli (GC 4559) (Escherichia coli; strain GC 4559): 32 µg/mL (≈ 22.5 µM)
MIC Escherichia coli (GC 4560) (Escherichia coli; strain GC 4560): 2 µg/mL (≈ 1.41 µM)
MIC Coagulase Negative Staphylococcus (GC 4547) (Staphylococcus sp.): 2 µg/mL (≈ 1.41 µM)
MIC Coagulase Negative Staphylococcus (GC 4548) (Staphylococcus sp.): 1 µg/mL (≈ 0.704 µM)
MIC Coagulase Negative Staphylococcus (GC 4549) (Staphylococcus sp.): 1 µg/mL (≈ 0.704 µM)
MIC Coagulase Negative Staphylococcus (GC 4551) (Staphylococcus sp.): 2 µg/mL (≈ 1.41 µM)
MIC Staphylococcus aureus (ATCC 29213) (Staphylococcus sp.): 2 µg/mL (≈ 1.41 µM)
MIC Staphylococcus aureus (GC 1131) (Staphylococcus sp.): 2 µg/mL (≈ 1.41 µM)
MIC Staphylococcus aureus (GC 3051) (Staphylococcus sp.): 2 µg/mL (≈ 1.41 µM)
MIC Staphylococcus aureus (GC 3053) (Staphylococcus sp.): 2 µg/mL (≈ 1.41 µM)
MIC Staphylococcus aureus (GC 4541) (Staphylococcus sp.): 2 µg/mL (≈ 1.41 µM)
MIC Staphylococcus aureus (GC 4542) (Staphylococcus sp.): 2 µg/mL (≈ 1.41 µM)
MIC Staphylococcus aureus (GC 4544) (Staphylococcus sp.): 4 µg/mL (≈ 2.82 µM)
MIC Staphylococcus aureus (GC 4545) (Staphylococcus sp.): 2 µg/mL (≈ 1.41 µM)
MIC Staphylococcus aureus-SMITH (GC 4543) (Staphylococcus sp.): 2 µg/mL (≈ 1.41 µM)
MIC Coagulase Negative Staphylococcus (GC 4547) (Staphylococcus sp.; strain GC 4547): 2 µg/mL (≈ 1.41 µM)
MIC Coagulase Negative Staphylococcus (GC 4548) (Staphylococcus sp.; strain GC 4548): 1 µg/mL (≈ 0.704 µM)
MIC Coagulase Negative Staphylococcus (GC 4549) (Staphylococcus sp.; strain GC 4549): 1 µg/mL (≈ 0.704 µM)
MIC Coagulase Negative Staphylococcus (GC 4551) (Staphylococcus sp.; strain GC 4551): 2 µg/mL (≈ 1.41 µM)
MIC Staphylococcus aureus-SMITH (GC 4543) (Staphylococcus sp.; strain SMITH GC 4543): 2 µg/mL (≈ 1.41 µM)
MIC Staphylococcus aureus (ATCC 29213) (Staphylococcus sp.; strain ATCC 29213): 2 µg/mL (≈ 1.41 µM)
MIC Staphylococcus aureus (GC 1131) (Staphylococcus sp.; strain GC 1131): 2 µg/mL (≈ 1.41 µM)
MIC Staphylococcus aureus (GC 3051) (Staphylococcus sp.; strain GC 3051): 2 µg/mL (≈ 1.41 µM)
MIC Staphylococcus aureus (GC 3053) (Staphylococcus sp.; strain GC 3053): 2 µg/mL (≈ 1.41 µM)
MIC Staphylococcus aureus (GC 4541) (Staphylococcus sp.; strain GC 4541): 2 µg/mL (≈ 1.41 µM)
MIC Staphylococcus aureus (GC 4542) (Staphylococcus sp.; strain GC 4542): 2 µg/mL (≈ 1.41 µM)
MIC Staphylococcus aureus (GC 4544) (Staphylococcus sp.; strain GC 4544): 4 µg/mL (≈ 2.82 µM)
MIC Staphylococcus aureus (GC 4545) (Staphylococcus sp.; strain GC 4545): 2 µg/mL (≈ 1.41 µM)
MIC Streptococcus agalactiae (GC 4564) (Streptococcus sp.; Streptococcus agalactiae (GC 4564)): 0.25 µg/mL (≈ 0.176 µM)
MIC Streptococcus pneumoniae (ATCC 6301) (Streptococcus sp.; Streptococcus pneumoniae (ATCC 6301)): 0.12 µg/mL (≈ 0.0845 µM)
MIC Streptococcus pneumoniae (GC 1894) (Streptococcus sp.; Streptococcus pneumoniae (GC 1894)): <0.06 µg/mL
MIC Streptococcus pneumoniae (GC 4565) (Streptococcus sp.; Streptococcus pneumoniae (GC 4565)): <0.06 µg/mL
MIC Streptococcus pyogenes (GC 4563) (Streptococcus sp.; Streptococcus pyogenes (GC 4563)): 0.25 µg/mL (≈ 0.176 µM)
MIC Streptococcus pneumoniae (ATCC 6301) (Streptococcus sp.; strain ATCC 6301): 0.12 µg/mL (≈ 0.0845 µM)
MIC Streptococcus pneumoniae (GC 1894) (Streptococcus sp.; strain GC 1894): <0.06 µg/mL
MIC Streptococcus pyogenes (GC 4563) (Streptococcus sp.; strain GC 4563): 0.25 µg/mL (≈ 0.176 µM)
MIC Streptococcus agalactiae (GC 4564) (Streptococcus sp.; strain GC 4564): 0.25 µg/mL (≈ 0.176 µM)
MIC Streptococcus pneumoniae (GC 4565) (Streptococcus sp.; strain GC 4565): <0.06 µg/mL
SMILES: N=C1NCC(C(O)C2NC(=O)C(Cc3ccc(OC4OC(CO)C(OC5OC(CO)C(O)C6OC7(OC56)C5CC6CC(C5)CC7C6)C(O)C4O)cc3)NC(=O)C(CC3CCCCC3)NC(=O)CNC(=O)C(CO)NC(=O)C(C(O)C3CNC(=N)N3C3OC(CO)C(O)C(O)C3O)NC2=O)N1 (centres unmarked) [Example 106a, Cyclo[3-cyclohexylalanyl-O-[4-O-[2,3-O-(2-adamantylidene)hexopyranosyl]hexopyranosyl]-tyrosyl-3-(2-iminoimidazolidin-4-yl)seryl-3-(3-hexopyranosyl-2-iminoimidazolidin-4-yl)-serylserylglycyl]]
MIC Staphylococcus haemolyticus (GC 4546) (Staphylococcus sp.): 2 µg/mL (≈ 1.41 µM)
MIC Staphylococcus haemolyticus (GC 4546) (Staphylococcus sp.; strain GC 4546): 2 µg/mL (≈ 1.41 µM)
